The test system of data set [1] is microtubule polymerization. As to conditions: in vitro and in vivo; cited from earlier work.
The subject of data set [2] is L5178Y mouse lymphoma cells. As to conditions: in vitro and in vivo; cited from earlier work.
Another data set deals with HTLV-III/LAV. To be noted: in vitro; cited from earlier work.
The next data set deals with Ames-microsomal assay. As to conditions: cited from earlier work.
For data set [3], the system named is benzo[a]pyrene monooxygenase. As to conditions: cited from earlier work.
For data set [4] the following is noted: documented; cited from earlier work.
Data set [5] has as its system β-N-acetylglucosaminidase (EC 3.2.1.30). The data set is described as follows: Initial screening assay for enzyme inhibition, β-N-acetylglucosaminidase. The format is biochemical, bovine kidney. As to conditions: 20 μM inhibitor, 2% MeOH. The procedure:
(§1) Optically pure enantiomers of avarol were synthetically prepared. A survey of potential inhibitory activity by avarol against twelve glycosidases was performed according to general procedures^15 (see experimental section). The enzymes tested and their biological sources are listed in Table 1 along with any pertinent references found for a given enzyme. In order to determine a working range for enzyme and substrate concentrations in which the rate of product formation was linear and steady-state kinetics were applicable, initial rate studies with varying substrate concentrations were performed in the absence of inhibitor. The Michaelis constants (Km 's) and Vmax values for these enzymes were determined from these plots using standard graphical analysis procedures as described in ref. 17 and are summarized in Table 2.
(§2) Enzymatic Assays. Piperazine-N,N'-bix-(2-ethanesulfonic acid)(PIPES) buffer, enzymes, and substrates were purchased from Sigma and used as received. Buffer solutions and enzymes (desiccated) were stored at 4° C. p-Nitrophenyl glycoside substrates were stored desiccated at -20° C. Enzyme inhibition assays and initial rate studies were carried out with the appropriate p-nitrophenyl glycoside substrates following the general procedure of Kajimoto et al., J. Am. Chem. Soc. 113:6187 (1991) with the exception that amyloglucosidase (EC 3.2,1.3, Asp. niger) was assayed following the method of Saul et al., Arch. Biochem. Biophys. 221:593 (1983). Assays were performed in a Perkin-Elmer Lambda Array 3840 Spectrophotometer using the built-in drive method (resolution=0.25, average=8) in a quartz cuvette (1 cm pathlength). Background absorption spectra were acquired using millipore filtered water as medium. Steady-state kinetics were maintained by adjusting the amount of enzyme used in each assay so that less than 10% of the substrate was converted to product for the duration of the reaction. Reactions were monitored at 400 nm (the absorbance of the p-nitrophenol product, ε=3204.5 M^-1 cm^-1) for a given amount of time and the initial rates were calculated and expressed as μmols p-nitrophenol formed per unit enzyme per second. Absportion readings for control reactions were corrected for the small baseline absorbance at time zero. Small discrepancies between time zero absorbance readings in a given inhibition assay and a time zero reading in a control assay were used to correct the overall absorbance change calculated in the inhibition assay. […]
(§3) Typical assay: A 1.5-mL quartz cuvette was charged with 940 μL of PIPES-NaOAc buffer solution (pH 6.56), 20 μL of inhibitor solution, and 20 μL of enzyme solution. […] The reaction was monitored at 400 nm for 1 min and the absorbance change was used to calculate the initial hydrolysis rate. […]

Data set [6] has as its target T1, β-galactosidase (EC 3.2.1.23, grade XI) (Aspergillus oryzae, UniProt Q2UCU3).
T1 construct: purchased Sigma; host or cells: Aspergillus oryzae
Nature of the data set: Initial screening assay for enzyme inhibition, β-galactosidase (Asp. oryzae). It counts as biochemical. To be noted: 20 μM inhibitor, 2% MeOH, read-out: % Enzyme activity relative to control. The procedure: as §1, §2, §3

Data set [7] addresses T2, β-galactosidase (EC 3.2.1.23) (Aspergillus niger, UniProt P29853).
T2 construct: purchased Sigma; host or cells: Aspergillus niger
Nature of the data set: Initial screening assay for enzyme inhibition, β-galactosidase (Asp. niger). It counts as biochemical. As to conditions: 20 μM inhibitor, 2% MeOH, read-out: % Enzyme activity relative to control. The procedure:
as §1, §2, §3

In data set [8] the target is T3, α-L-fucosidase (EC 3.2.1.51) (Bos taurus, UniProt Q2KIM0).
T3 construct: purchased Sigma; host or cells: bovine kidney
T3 sequence (Q2KIM0 23-468): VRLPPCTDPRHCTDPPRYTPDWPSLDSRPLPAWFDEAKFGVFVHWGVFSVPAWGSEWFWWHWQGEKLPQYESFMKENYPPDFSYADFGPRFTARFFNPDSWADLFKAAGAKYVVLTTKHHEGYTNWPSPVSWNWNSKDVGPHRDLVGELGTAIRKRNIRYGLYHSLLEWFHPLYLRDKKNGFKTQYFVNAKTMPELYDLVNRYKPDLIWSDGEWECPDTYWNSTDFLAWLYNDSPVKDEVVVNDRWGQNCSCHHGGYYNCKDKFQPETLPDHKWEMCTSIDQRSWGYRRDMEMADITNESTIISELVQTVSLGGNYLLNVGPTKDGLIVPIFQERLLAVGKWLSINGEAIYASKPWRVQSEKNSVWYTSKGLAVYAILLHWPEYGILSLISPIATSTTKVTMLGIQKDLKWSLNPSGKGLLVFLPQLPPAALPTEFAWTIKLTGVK
Nature of the data set: Initial screening assay for enzyme inhibition, α-L-fucosidase. To be noted: read-out: % Enzyme activity relative to control. The format is biochemical, bovine kidney. The procedure:
as §1, §2, §3

For data set [9], the system named is α-galactosidase (EC 3.2.1.22). Nature of the data set: Initial screening assay for enzyme inhibition, α-galactosidase (E. coli). To be noted: 20 μM inhibitor, 2% MeOH. The format is biochemical, Escherichia coli. The procedure: as §1, §2, §3
For data set [10], the target named is T4, α-galactosidase (EC 3.2.1.22) (Coffea arabica, UniProt Q42656).
T4 construct: purchased Sigma; host or cells: green coffee beans
T4 sequence (Q42656 16-378): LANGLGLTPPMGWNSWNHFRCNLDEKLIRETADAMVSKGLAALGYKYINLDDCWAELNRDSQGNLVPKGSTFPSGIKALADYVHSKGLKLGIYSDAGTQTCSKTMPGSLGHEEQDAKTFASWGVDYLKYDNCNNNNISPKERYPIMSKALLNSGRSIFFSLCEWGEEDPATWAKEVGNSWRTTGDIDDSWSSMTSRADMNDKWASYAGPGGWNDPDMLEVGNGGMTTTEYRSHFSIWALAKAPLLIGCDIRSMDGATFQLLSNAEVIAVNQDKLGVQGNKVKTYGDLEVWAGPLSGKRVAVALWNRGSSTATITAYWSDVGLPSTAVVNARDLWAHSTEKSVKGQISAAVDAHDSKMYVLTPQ
Nature of the data set: Initial screening assay for enzyme inhibition, α-galactosidase (green coffee beans). To be noted: read-out: % Enzyme activity relative to control. The format is biochemical. The procedure: as §1, §2, §3

Data set [11] has as its system amyloglucosidase (EC 3.2.1.3). The data set is described as follows: Initial screening assay for enzyme inhibition, amyloglucosidase. The format is biochemical, Aspergillus niger. As to conditions: for % Enzyme activity relative to control: amyloglucosidase, 20 μM inhibitor, 2% MeOH. The procedure: as §1
(§4) Enzymatic Assays. Piperazine-N,N'-bix-(2-ethanesulfonic acid)(PIPES) buffer, enzymes, and substrates were purchased from Sigma and used as received. Buffer solutions and enzymes (desiccated) were stored at 4° C. p-Nitrophenyl glycoside substrates were stored desiccated at -20° C. Enzyme inhibition assays and initial rate studies were carried out with the appropriate p-nitrophenyl glycoside substrates following the general procedure of Kajimoto et al., J. Am. Chem. Soc. 113:6187 (1991) with the exception that amyloglucosidase (EC 3.2,1.3, Asp. niger) was assayed following the method of Saul et al., Arch. Biochem. Biophys. 221:593 (1983). Assays were performed in a Perkin-Elmer Lambda Array 3840 Spectrophotometer using the built-in drive method (resolution=0.25, average=8) in a quartz cuvette (1 cm pathlength). Background absorption spectra were acquired using millipore filtered water as medium. Steady-state kinetics were maintained by adjusting the amount of enzyme used in each assay so that less than 10% of the substrate was converted to product for the duration of the reaction. Reactions were monitored at 400 nm (the absorbance of the p-nitrophenol product, ε=3204.5 M^-1 cm^-1) for a given amount of time and the initial rates were calculated and expressed as μmols p-nitrophenol formed per unit enzyme per second. Absportion readings for control reactions were corrected for the small baseline absorbance at time zero. Small discrepancies between time zero absorbance readings in a given inhibition assay and a time zero reading in a control assay were used to correct the overall absorbance change calculated in the inhibition assay. Inhibitors were dissolved in uv-grade absolute methanol.
(§5) Typical assay: A 1.5-mL quartz cuvette was charged with 940 μL of PIPES-NaOAc buffer solution (pH 6.56), 20 μL of inhibitor solution, and 20 μL of enzyme solution. The result was mixed well and then equilibrated at 37° C. for two minutes. 20 μL of the appropriate p-nitrophenyl glycoside solution was then added to initiate the reaction with rapid mixing. The reaction was monitored at 400 nm for 1 min and the absorbance change was used to calculate the initial hydrolysis rate. Lineweaver-Burk plots were constructed by repeating this procedure with varying substrate and inhibitor concentrations.

The subject of data set [12] is β-mannosidase (EC 3.2.1.25). Nature of the data set: Initial screening assay for enzyme inhibition, β-mannosidase. The format is biochemical, snail. To be noted: 20 μM inhibitor, 2% MeOH. The procedure: as §1, §2, §3
Data set [13] has as its target T5, β-xylosidase (EC 3.2.1.37) (Aspergillus niger, UniProt O00089).
T5 construct: purchased Sigma; host or cells: Aspergillus niger
The data set is described as follows: Initial screening assay for enzyme inhibition, β-xylosidase. To be noted: 20 μM inhibitor, 2% MeOH, read-out: % Enzyme activity relative to control. The format is biochemical. The procedure: as §1, §2, §3

Data set [14] deals with T6, α-glucosidase (EC 3.2.1.20, type IV) (Saccharomyces cerevisiae, UniProt P53341).
T6 construct: purchased Sigma; host or cells: brewer's yeast
T6 sequence (P53341 whole entry): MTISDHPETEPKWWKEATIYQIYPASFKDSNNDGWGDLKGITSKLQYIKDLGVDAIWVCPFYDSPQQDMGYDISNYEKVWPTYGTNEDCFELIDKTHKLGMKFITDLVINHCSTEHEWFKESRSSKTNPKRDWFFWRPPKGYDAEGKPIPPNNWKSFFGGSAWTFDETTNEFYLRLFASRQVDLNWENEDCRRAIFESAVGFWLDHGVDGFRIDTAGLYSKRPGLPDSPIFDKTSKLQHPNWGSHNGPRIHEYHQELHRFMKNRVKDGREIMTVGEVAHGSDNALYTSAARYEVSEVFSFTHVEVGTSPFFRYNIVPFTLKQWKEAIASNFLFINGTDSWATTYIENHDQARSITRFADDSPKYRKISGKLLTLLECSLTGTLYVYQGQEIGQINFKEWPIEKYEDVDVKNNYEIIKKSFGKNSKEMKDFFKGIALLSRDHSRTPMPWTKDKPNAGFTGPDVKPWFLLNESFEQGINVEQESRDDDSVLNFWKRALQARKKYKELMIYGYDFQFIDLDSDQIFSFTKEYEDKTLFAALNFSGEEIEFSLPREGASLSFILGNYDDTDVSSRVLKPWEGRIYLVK
Nature of the data set: Initial screening assay for enzyme inhibition, α-glucosidase. It counts as biochemical, brewer's yeast. The procedure: as §1
Initial screening assays with the enantiomeric avarols indicated significant activity by these compounds against only two of the twelve enzymes studies. […] This can occur when the two species compete for the same site or nearby sites on the enzyme. The equilibria that describe competitive inhibition are shown below. [drawing 3]
as §4, §5

Read-outs that look alike come from different tables or passages of the source.

Here are results for 4 compounds from patent publication US6075057A, “Inhibition of carbohydrates metabolism by quinone compounds” (priority 1997, dated 2000).

The inhibition is the relative decrease from the control value, in per cent.

T2 sequence (P29853 20-1006): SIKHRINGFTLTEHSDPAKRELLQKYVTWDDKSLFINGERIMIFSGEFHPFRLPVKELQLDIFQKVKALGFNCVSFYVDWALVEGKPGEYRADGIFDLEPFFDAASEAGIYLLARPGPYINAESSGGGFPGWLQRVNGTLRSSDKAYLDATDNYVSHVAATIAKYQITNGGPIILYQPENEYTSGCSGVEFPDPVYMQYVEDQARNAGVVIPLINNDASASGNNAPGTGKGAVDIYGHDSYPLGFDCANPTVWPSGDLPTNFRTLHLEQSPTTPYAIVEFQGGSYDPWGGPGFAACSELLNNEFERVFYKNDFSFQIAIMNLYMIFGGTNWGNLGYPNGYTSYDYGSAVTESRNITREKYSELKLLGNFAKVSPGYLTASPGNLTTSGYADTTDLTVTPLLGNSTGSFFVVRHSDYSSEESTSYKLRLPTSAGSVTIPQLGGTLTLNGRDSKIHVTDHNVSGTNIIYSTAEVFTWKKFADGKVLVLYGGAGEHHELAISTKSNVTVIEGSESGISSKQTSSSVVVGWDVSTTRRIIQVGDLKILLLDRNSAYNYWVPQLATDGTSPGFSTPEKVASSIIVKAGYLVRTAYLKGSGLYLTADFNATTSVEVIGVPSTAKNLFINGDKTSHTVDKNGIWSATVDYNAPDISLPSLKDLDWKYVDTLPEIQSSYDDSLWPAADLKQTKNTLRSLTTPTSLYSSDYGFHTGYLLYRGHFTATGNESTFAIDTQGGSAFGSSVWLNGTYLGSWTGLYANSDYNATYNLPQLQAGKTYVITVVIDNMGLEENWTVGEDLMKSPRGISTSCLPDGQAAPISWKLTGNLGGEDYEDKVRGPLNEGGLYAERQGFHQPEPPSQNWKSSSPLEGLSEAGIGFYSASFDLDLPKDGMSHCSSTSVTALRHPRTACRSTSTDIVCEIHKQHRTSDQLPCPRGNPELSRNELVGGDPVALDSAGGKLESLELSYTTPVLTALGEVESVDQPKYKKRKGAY
T5 sequence (O00089 27-804): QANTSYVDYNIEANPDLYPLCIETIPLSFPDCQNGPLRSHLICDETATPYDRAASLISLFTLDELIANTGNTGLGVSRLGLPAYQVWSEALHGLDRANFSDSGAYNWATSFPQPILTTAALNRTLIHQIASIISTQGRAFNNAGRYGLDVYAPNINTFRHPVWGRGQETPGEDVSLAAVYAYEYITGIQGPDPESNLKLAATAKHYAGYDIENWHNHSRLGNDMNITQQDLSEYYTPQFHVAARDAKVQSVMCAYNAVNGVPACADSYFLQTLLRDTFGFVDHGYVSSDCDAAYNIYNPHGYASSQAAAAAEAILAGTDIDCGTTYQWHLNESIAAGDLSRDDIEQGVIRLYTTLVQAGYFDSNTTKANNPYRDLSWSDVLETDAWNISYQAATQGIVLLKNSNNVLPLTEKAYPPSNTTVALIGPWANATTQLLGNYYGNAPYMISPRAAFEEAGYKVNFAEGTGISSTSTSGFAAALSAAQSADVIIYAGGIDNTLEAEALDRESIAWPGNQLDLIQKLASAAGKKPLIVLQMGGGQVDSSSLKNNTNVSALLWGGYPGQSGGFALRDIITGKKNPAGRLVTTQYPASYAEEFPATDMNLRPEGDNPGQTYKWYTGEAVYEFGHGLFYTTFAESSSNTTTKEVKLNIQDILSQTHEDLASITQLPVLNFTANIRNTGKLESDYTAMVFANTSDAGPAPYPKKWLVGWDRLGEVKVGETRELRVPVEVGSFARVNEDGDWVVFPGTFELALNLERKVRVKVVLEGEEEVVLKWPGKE
T1 sequence (Q2UCU3 19-1005): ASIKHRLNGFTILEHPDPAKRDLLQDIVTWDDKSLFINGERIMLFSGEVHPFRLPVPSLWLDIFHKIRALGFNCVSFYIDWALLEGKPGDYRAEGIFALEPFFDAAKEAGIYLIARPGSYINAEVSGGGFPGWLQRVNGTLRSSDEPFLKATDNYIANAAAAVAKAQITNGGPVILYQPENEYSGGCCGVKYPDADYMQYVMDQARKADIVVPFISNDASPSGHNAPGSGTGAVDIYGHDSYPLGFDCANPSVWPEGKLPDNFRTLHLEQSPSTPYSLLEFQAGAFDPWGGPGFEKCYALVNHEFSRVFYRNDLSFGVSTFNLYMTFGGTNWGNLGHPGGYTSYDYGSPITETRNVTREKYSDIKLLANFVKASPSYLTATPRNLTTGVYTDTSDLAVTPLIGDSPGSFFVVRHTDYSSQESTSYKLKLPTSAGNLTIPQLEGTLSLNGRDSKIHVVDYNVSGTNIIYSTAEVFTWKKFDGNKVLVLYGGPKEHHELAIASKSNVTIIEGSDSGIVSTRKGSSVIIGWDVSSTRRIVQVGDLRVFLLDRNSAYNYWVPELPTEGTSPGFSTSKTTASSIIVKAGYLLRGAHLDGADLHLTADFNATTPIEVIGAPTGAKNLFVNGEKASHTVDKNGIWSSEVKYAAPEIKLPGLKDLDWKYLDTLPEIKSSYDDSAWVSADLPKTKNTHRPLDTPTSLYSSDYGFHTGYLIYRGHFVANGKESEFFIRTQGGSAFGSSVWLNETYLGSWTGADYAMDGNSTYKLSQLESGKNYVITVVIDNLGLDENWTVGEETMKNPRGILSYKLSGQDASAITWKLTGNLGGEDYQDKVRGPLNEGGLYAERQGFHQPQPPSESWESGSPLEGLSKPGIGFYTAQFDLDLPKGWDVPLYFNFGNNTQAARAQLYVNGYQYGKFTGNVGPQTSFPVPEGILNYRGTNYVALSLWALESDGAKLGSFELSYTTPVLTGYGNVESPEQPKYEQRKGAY

For `CC1=CCC[C@H]2[C@](C)(Cc3cc(O)ccc3O)[C@@H](C)CC[C@]12C` [avarol], in data set [1], the “inhibition of microtubule polymerization” value was “inhibition of microtubule polymerization”. The “cytotoxicity against L5178Y mouse lymphoma cells” value in data set [2] was “highly selective cytotoxicity”. Moreover, the “inhibition of replication of HTLV-III/LAV” value in the data set on HTLV-III/LAV is reported as “inhibition of replication”. Further, the mutagenicity entry in the data set on Ames-microsomal assay is “neither direct nor indirect mutagens”. Further, the “antimutagenic activity through inhibition of benzo[a]pyrene monooxygenase” value in data set [3] was “antimutagenic activity through the inhibition of benzo[a]pyrene monooxygenase”. Further, the toxicity entry in data set [4] is “low toxicity”.
For the compound `CC1=CCC[C@H]2[C@](C)(CC/C(C)=C/C[n+]3cn(C)c4ncnc(N)c43)[C@@H](C)CC[C@]12C` [C-4-10], the “% Enzyme activity relative to control” value in data set [5] was determined as 91%; in data set [9], 102%; in data set [11], 94%; in data set [12] it was 109%. Moreover, the remaining activity at 20 µM in [6] stood at 108%; in data set [7] it was 95%; in data set [8], 100%; in [10] it was 96%; in [13], 102%.
In the case of `CC1=CCC[C@H]2[C@](C)(CC3=CC(=O)C=CC3=O)[C@@H](C)CC[C@]12C` [avarone, Avarone], the mutagenicity entry in the data set on Ames-microsomal assay is “neither direct nor indirect mutagens”. Moreover, the “antimutagenic activity through inhibition of benzo[a]pyrene monooxygenase” value in [3] is “antimutagenic activity through the inhibition of benzo[a]pyrene monooxygenase”. Further, the toxicity result in data set [4] was “low toxicity”.
`C=C1CCC[C@H]2[C@](C)(CC3=C(O)C(=O)C=C(OC)C3=O)[C@@H](C)CC[C@]12C` [ilimaquinone, reference compound]: the inhibition at 20 µM in data set [14] (20 μM) stood at 20%. The remaining activity at 20 µM came to 82% in data set [14] (α-glucosidase, 20 μM inhibitor, 2% MeOH, read-out: % Enzyme activity relative to control); 98% in [6]; 111% in data set [7]; 109% in [8] (α-L-fucosidase, 20 μM inhibitor, 2% MeOH); 97% in [10] (α-galactosidase (green coffee beans), 20 μM inhibitor, 2% MeOH); 105% in data set [13]. For the same compound, the “% Enzyme activity relative to control” value is 96% in data set [5], 101% in [9], 57% in [11] and 108% in data set [12]. Moreover, the “inhibition of amyloglucosidase (in words)” value in [11] (Table 3) is listed as “strong inhibitor of amyloglucosidase”.
